Assay results taken from patent US20260262643A1, “HERBICIDAL BENZOXAZINES” (FMC CORPORATION, priority 2022, published 2026).

Legend:
[1] = system: blackgrass; experiment: Test A preemergence; type: in vivo, Alopecurus myosuroides
Outline: (§1)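 Loam/sand soil; pre-em directed soil spray at planting, post-em spray at 1–2 leaf (2–10 cm). Compound in non-phytotoxic solvent + surfactant. Greenhouse 10 d; visual injury vs untreated, 0 = no effect, 100 = complete control.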

[2] = system: corn; experiment: Test A preemergence; type: in vivo, Zea mays
Outline: as §1

[3] = system: foxtail, giant; experiment: Test A preemergence; type: in vivo, Setaria faberi
Outline: as §1

[4] = system: goosegrass; experiment: Test A preemergence; type: in vivo, Eleusine indica
Outline: as §1

[5] = system: kochia; experiment: Test A preemergence; type: in vivo, Bassia scoparia
Outline: as §1

[6] = system: oat, wild; experiment: Test A preemergence; type: in vivo, Avena fatua
Outline: as §1

[7] = system: pigweed, palmer; experiment: Test A preemergence; type: in vivo, Amaranthus palmeri
Outline: as §1

[8] = system: ragweed; experiment: Test A preemergence; type: in vivo, Ambrosia artemisiifolia
Outline: as §1

[9] = system: ryegrass, Italian; experiment: Test A preemergence; type: in vivo, Lolium multiflorum
Outline: as §1

[10] = system: soybean; experiment: Test A preemergence; type: in vivo, Glycine max
Outline: as §1

[11] = system: wheat; experiment: Test A preemergence; type: in vivo, Triticum aestivum
Outline: as §1

[12] = system: blackgrass; experiment: Test A postemergence; type: in vivo, Alopecurus myosuroides
Outline: as §1

[13] = system: corn; experiment: Test A postemergence; type: in vivo, Zea mays
Outline: as §1

[14] = system: foxtail, giant; experiment: Test A postemergence; type: in vivo, Setaria faberi
Outline: as §1

[15] = system: goosegrass; experiment: Test A postemergence; type: in vivo, Eleusine indica
Outline: as §1

[16] = system: kochia; experiment: Test A postemergence; type: in vivo, Bassia scoparia
Outline: as §1

[17] = system: oat, wild; experiment: Test A postemergence; type: in vivo, Avena fatua
Outline: as §1

[18] = system: pigweed, palmer; experiment: Test A postemergence; type: in vivo, Amaranthus palmeri
Outline: as §1

[19] = system: ragweed; experiment: Test A postemergence; type: in vivo, Ambrosia artemisiifolia
Outline: as §1

[20] = system: ryegrass, Italian; experiment: Test A postemergence; type: in vivo, Lolium multiflorum
Outline: as §1

[21] = system: soybean; experiment: Test A postemergence; type: in vivo, Glycine max
Outline: as §1

[22] = system: wheat; experiment: Test A postemergence; type: in vivo, Triticum aestivum
Outline: as §1

[23] = system: galium; experiment: Test A postemergence; type: in vivo, Galium aparine
Outline: as §1

[24] = system: horseweed; experiment: Test A postemergence; type: in vivo, Erigeron canadensis
Outline: as §1

[25] = system: barnyardgrass; experiment: Test B flooded paddy test; type: in vivo, Echinochloa crus-galli; details: 250 g ai/ha, Flood, 13 days, 0 to 100 scale (0 no effect, 100 complete control)
Outline: (§2)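 Plants at the 2-leaf stage were flooded to 3 cm above the soil, and test compounds were applied directly into the paddy water, with that depth held throughout. After 13 days in a greenhouse, injury was rated visually against untreated controls on a 0–100 scale (100 = complete control).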

[26] = system: ducksalad; experiment: Test B flooded paddy test; type: in vivo, Heteranthera limosa; details: 250 g ai/ha, Flood, 13 days, 0 to 100 scale (0 no effect, 100 complete control)
Outline: as §2

[27] = system: rice; experiment: Test B flooded paddy test; type: in vivo, Oryza sativa; details: 250 g ai/ha, Flood, 13 days, 0 to 100 scale (0 no effect, 100 complete control)
Outline: as §2

[28] = system: sedge, umbrella; experiment: Test B flooded paddy test; type: in vivo, Cyperus difformis; details: 250 g ai/ha, Flood, 13 days, 0 to 100 scale (0 no effect, 100 complete control)
Outline: as §2

[29] = 125 g ai/ha, visual injury after 10 days, 0 to 100 scale, 0 is no effect, 100 is complete control
[30] = 500 g ai/ha, 0 to 100 scale (0 no effect, 100 complete control), 10 days
[31] = 125 g ai/ha, postemergence, 10 days, visual injury, 0 to 100 scale (0 no effect, 100 complete control)
[32] = 500 g ai/ha, Postemergence, 0 to 100 scale
[33] = 500 g ai/ha, postemergence, 10 days, visual injury, 0 to 100 scale (0 no effect, 100 complete control)

Cc1cccc2c1O[C@@H](C)CN2C(=O)c1cccc(-n2ncnc2C(C)C)c1 [Compound 56]
0: Plant response rating, Blackgrass [1, 29] | Plant response rating, Blackgrass [1, 30] | Plant response rating, Corn [2, 29] | Plant response rating, Corn [2, 30] | Plant response rating, Foxtail, Giant [3, 29] | Plant response rating, Foxtail, Giant [3, 30] | Plant response rating, Goosegrass [4, 29] | Plant response rating, Goosegrass [4, 30] | Plant response rating, Kochia [5, 29] | Plant response rating, Kochia [5, 30] | Plant response rating, Oat, Wild [6, 29] | Plant response rating, Oat, Wild [6, 30] | Plant response rating, Pigweed, Palmer [7, 29] | Plant response rating, Pigweed, Palmer [7, 30] | Plant response rating, Ragweed [8, 29] | Plant response rating, Ragweed [8, 30] | Plant response rating, Ryegrass, Italian [9, 29] | Plant response rating, Ryegrass, Italian [9, 30] | Plant response rating, Soybean [10, 29] | Plant response rating, Soybean [10, 30] | Plant response rating, Wheat [11, 29] | Plant response rating, Wheat [11, 30] | Plant response rating, Blackgrass [12, 31] | Plant response rating, Blackgrass [12, 32] | Plant response rating, Corn [13, 31] | Plant response rating, Corn [13, 32] | Plant response rating, Foxtail, Giant [14, 31] | Plant response rating, Foxtail, Giant [14, 32] | Plant response rating, Goosegrass [15, 31] | Plant response rating, Goosegrass [15, 32] | Plant response rating, Kochia [16, 31] | Plant response rating, Kochia [16, 32] | Plant response rating, Oat, Wild [17, 31] | Plant response rating, Oat, Wild [17, 32] | Plant response rating, Pigweed, Palmer [18, 31] | Plant response rating, Pigweed, Palmer [18, 32] | Plant response rating, Ragweed [19, 31] | Plant response rating, Ragweed [19, 32] | Plant response rating, Ryegrass, Italian [20, 31] | Plant response rating, Ryegrass, Italian [20, 32] | Plant response rating, Soybean [21, 31] | Plant response rating, Wheat [22, 31] | Plant response rating, Wheat [22, 32] | Plant response rating, Galium [23, 31] | Plant response rating, Galium [23, 32] | Plant response rating, Horseweed [24, 31] | Plant response rating, Horseweed [24, 32] | Plant response rating, Barnyardgrass [25] | Plant response rating, Ducksalad [26] | Plant response rating, Rice [27] | Plant response rating, Sedge, Umbrella [28]
10: Plant response rating, Soybean [21, 32]

O=C(c1cccc(-n2cncn2)c1)N1CC(C(F)(F)F)Oc2c(Cl)cccc21 (centres unmarked) [Compound 59]
90: Plant response rating, Foxtail, Giant [3, 29] | Plant response rating, Goosegrass [4, 29] | Plant response rating, Kochia [5, 30] | Plant response rating, Oat, Wild [6, 30] | Plant response rating, Ryegrass, Italian [9, 29] | Plant response rating, Soybean [10, 30] | Plant response rating, Foxtail, Giant [14, 32] | Plant response rating, Galium [23, 31]
40: Plant response rating, Foxtail, Giant [14, 31] | Plant response rating, Ragweed [19, 31] | Plant response rating, Ragweed [19, 32] | Plant response rating, Wheat [22, 32]
10: Plant response rating, Pigweed, Palmer [7, 29] | Plant response rating, Kochia [16, 31] | Plant response rating, Oat, Wild [17, 31] | Plant response rating, Wheat [22, 31]
50: Plant response rating, Wheat [11, 30] | Plant response rating, Goosegrass [15, 32] | Plant response rating, Oat, Wild [17, 32] | Plant response rating, Pigweed, Palmer [18, 32]
80: Plant response rating, Blackgrass [12, 32]
70: Plant response rating, Kochia [16, 32]
100: Plant response rating, Foxtail, Giant [3, 30] | Plant response rating, Goosegrass [4, 30] | Plant response rating, Pigweed, Palmer [7, 30] | Plant response rating, Ryegrass, Italian [9, 30] | Plant response rating, Soybean [21, 32] | Plant response rating, Galium [23, 32]
60: Plant response rating, Blackgrass [1, 30] | Plant response rating, Ryegrass, Italian [20, 32]
20: Plant response rating, Corn [2, 30] | Plant response rating, Oat, Wild [6, 29] | Plant response rating, Blackgrass [12, 31] | Plant response rating, Corn [13, 32] | Plant response rating, Goosegrass [15, 31] | Plant response rating, Pigweed, Palmer [18, 31]
0: Plant response rating, Blackgrass [1, 29] | Plant response rating, Kochia [5, 29] | Plant response rating, Ragweed [8, 29] | Plant response rating, Ragweed [8, 30] | Plant response rating, Wheat [11, 29] | Plant response rating, Ryegrass, Italian [20, 31] | Plant response rating, Horseweed [24, 31] | Plant response rating, Horseweed [24, 32] | Plant response rating, Barnyardgrass [25] | Plant response rating, Ducksalad [26] | Plant response rating, Rice [27] | Plant response rating, Sedge, Umbrella [28]

Cc1cccc2c1O[C@@H](C)CN2C(=O)c1cccc(-n2cnc(C(F)(F)F)n2)c1 [Compound 66]
0: Plant response rating, Ragweed [8, 29] | Plant response rating, Ragweed [8, 30] | Plant response rating, Corn [13, 31] | Plant response rating, Horseweed [24, 31] | Plant response rating, Horseweed [24, 33] | Plant response rating, Barnyardgrass [25] | Plant response rating, Ducksalad [26] | Plant response rating, Rice [27] | Plant response rating, Sedge, Umbrella [28]
50: Plant response rating, Corn [2, 30] | Plant response rating, Pigweed, Palmer [7, 29] | Plant response rating, Goosegrass [15, 33]
40: Plant response rating, Soybean [10, 30] | Plant response rating, Ragweed [19, 33]
60: Plant response rating, Blackgrass [12, 31]
30: Plant response rating, Corn [2, 29] | Plant response rating, Oat, Wild [6, 29] | Plant response rating, Soybean [10, 29] | Plant response rating, Kochia [16, 31] | Plant response rating, Pigweed, Palmer [18, 33]
70: Plant response rating, Blackgrass [1, 29] | Plant response rating, Corn [13, 33] | Plant response rating, Oat, Wild [17, 33] | Plant response rating, Ryegrass, Italian [20, 33]
80: Plant response rating, Wheat [11, 30] | Plant response rating, Kochia [16, 33] | Plant response rating, Galium [23, 31]
100: Plant response rating, Foxtail, Giant [3, 30] | Plant response rating, Goosegrass [4, 29] | Plant response rating, Goosegrass [4, 30] | Plant response rating, Pigweed, Palmer [7, 30] | Plant response rating, Ryegrass, Italian [9, 29] | Plant response rating, Ryegrass, Italian [9, 30] | Plant response rating, Soybean [21, 33] | Plant response rating, Galium [23, 33]
20: Plant response rating, Wheat [11, 29] | Plant response rating, Foxtail, Giant [14, 31] | Plant response rating, Wheat [22, 33]
10: Plant response rating, Kochia [5, 29] | Plant response rating, Goosegrass [15, 31]
90: Plant response rating, Blackgrass [1, 30] | Plant response rating, Foxtail, Giant [3, 29] | Plant response rating, Kochia [5, 30] | Plant response rating, Oat, Wild [6, 30] | Plant response rating, Blackgrass [12, 32] | Plant response rating, Foxtail, Giant [14, 33]
